In ChEMBL document CHEMBL3886937, “Pyrimidodiazepinone compound” (2016) one finds IC50 data, which are given here for 17 compounds.

For orientation: IC50 means the concentration that inhibits the measured activity by half.

This test can be described thus: [3H]-Gabapentin Binding Assay: A test compound (20 μL) diluted to 5 times of the final concentration with Binding buffer, [3H]-gabapentin diluted to 100 nmol/L with binding buffer [20 μL (final concentration 20 nmol/L)], and the rat cerebral cortex membrane fraction (60 μL; 12 μg membrane fraction) obtained in the (1) above were added to each well of a 96-well round-bottom plate. After being sufficiently mixed, these were allowed to react at room temperature for 1 hour. After the reaction, the reaction sample was suction filtered using a filter plate with 50 μL/well of 0.3 vol % polyethyleneimine added, and a cell harvester. The filter was then washed with ice-cooled Wash buffer (100 mmol/L NaCl, 0.1 w/v % BSA). After being washed, the filter plate was dried, and a scintillation cocktail (MicroScint-20, purchased from PerkinElmer) was added (50 μL/well), and the radioactivity on the filter was measured. The radioactivity obtained in the absence of the test compound was measured as total binding amount, and the radioactivity obtained by addition of an unlabeled gabapentin (final concentration 100 mmol/L) as a test compound was measured as non-specific binding amount.
On to `CCNc1ncc2c(n1)N1CCC[C@H]1CN(c1c[nH]c3ncn(C)c(=O)c13)C2=O`, for which the IC50 stood at 2.6 nM.
Turning to `CCNc1ncc2c(n1)N1CCC[C@H]1CN(c1cccc3c(=O)n(C)ccc13)C2=O`, the IC50 came to 5 nM.
Consider `CNc1ncc2c(n1)N1CCC[C@H]1CN(c1c[nH]c3ncn(C)c(=O)c13)C2=O`, for which the IC50 came out at 3.6 nM.
With `CCNc1ncc2c(n1)N1CCC[C@H]1CN(c1cccn3c(=O)cc(C)nc13)C2=O`, the concentration for half-maximal inhibition (IC50) was determined as 5.2 nM.
For `CCCNc1ncc2c(n1)N1CCC[C@H]1CN(c1cccc3c(=O)n(C)cnc13)C2=O`, the 50% inhibitory concentration (IC50) was 3 nM.
The figure for `CCNc1ncc2c(n1)N1CCC[C@H]1CN(c1cccc3c(=O)n(CCCN(C)C)cnc13)C2=O` is 0.7 nM; for `CNc1ncc2c(n1)N1CCC[C@H]1CN(c1cccn3c(=O)c(C)c(C)nc13)C2=O` it is 4.7 nM; for `CNc1ncc2c(n1)N1CCC[C@H]1CN(c1cccc3c(=O)n(CCCN(C)C)cnc13)C2=O` it is 1.2 nM.
Consider `CCNc1ncc2c(n1)N1CCC[C@H]1CN(c1cccc3c(=O)n(CCF)c(C)nc13)C2=O`, for which the 50% inhibitory concentration (IC50) worked out at 4.8 nM.
In the case of `CCNc1ncc2c(n1)N1CCC[C@H]1CN(c1cccn3c(=O)c(C)c(C)nc13)C2=O` it was 2.7 nM; in that of `CCNc1ncc2c(n1)N1CCC[C@H]1CN(c1cccc3c(=O)n(C)c(COC)nc13)C2=O`, 3.8 nM.
Turning to `CNc1ncc2c(n1)N1CCC[C@H]1CN(c1cncc3c(=O)n(C)cnc13)C2=O`, the IC50 came to 4.1 nM.
On to `CCNc1ncc2c(n1)N1CCC[C@H]1CN(c1cccc3ncn(C)c(=O)c13)C2=O`, for which the IC50 worked out at 3.9 nM.
In the case of `CCn1cnc2c(N3C[C@@H]4CCCN4c4nc(NC)ncc4C3=O)cccc2c1=O` it was 4 nM; in that of `CCNc1ncc2c(n1)N1CCC[C@H]1CN(c1cccc3c(=O)n(C)c(C)nc13)C2=O`, 2.6 nM.
As to `CNc1ncc2c(n1)N1CCC[C@H]1CN(c1cccc3c(=O)n(C)cnc13)C2=O`, the half-inhibitory concentration (IC50) was determined as 2.6 nM.
As for `CCNc1ncc2c(n1)N1CCC[C@H]1CN(c1scc3c(=O)n(C)cnc13)C2=O`, the half-maximal inhibitory concentration (IC50) came out at 3 nM.
